From ChEMBL document CHEMBL3352016, “Natural hydrazine-containing compounds: Biosynthesis, isolation, biological activities and synthesis” (Bioorg Med Chem, 2014) come the findings set out here.

The nature of assay [1]: Anticancer activity against human MDA231 cells. The format is functional, cell-based. As to conditions: MDA-MB-231.
Assay [2] is described as follows: Anticancer activity against human HCT116 cells. The assay is classed as functional, cell-based. As to conditions: HCT-116.
A short description of assay [3]: Inhibition of Escherichia coli DnaG primase.
Assay [4] is described as follows: Anticancer activity against human Caco2 cells. The format is functional, cell-based. As to conditions: Caco-2.
For assay [5], the system named is A-375. The assay is described as follows: Anticancer activity against human A375 cells. The format is functional, cell-based.

Structures are written as SMILES.

Consider `CCCC/C=C\N(NC(C)=O)C(=O)CCC1=CCOC1=O` [GERALCIN B], for which the IC50 in assay [1] stood at 5 µM. This lies in the single-digit micromolar range.
Turning to `CCCC/C=C\N(NC(C)=O)C(=O)C(CO)/N=[N+](\[O-])CCCCCC` (stereo not given) [GERALCIN C], the IC50 turned out to be 0.8 µM in assay [2] and 700 µM in assay [3].
`COc1cc(/C=C/C(=O)NCCc2c[nH]c3ccc(O)cc23)ccc1O` [N-FERULOYL SEROTONIN] displayed an IC50 in assay [4] of 81 µM. This counts as double-digit micromolar.
In assay [5], `N[C@@H](CCC(=O)NNc1ccc(O)cc1)C(=O)O` [XANTHODERMINE] displayed an IC50 of 1.6 µM.

The IC50 is the concentration at which inhibition is half-maximal. A high value points to weaker potency.
